Target: T1, voltage-dependent T-type calcium channel subunit alpha-1G (Cav3.2) (Homo sapiens, UniProt O95180)
T1 construct: expressed in transfected cells; host or cells: HEK293
Assay: FLIPR calcium flux assay, HEK293 cells recombinantly expressing Cav3.2
Assay type: cell-based
Conditions: Cav3.2-channel, Fluo-4-AM, 3 min incubation, stimulation with 10 mM CaCl2
Summary of the method: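 Calcium influx was triggered by adding CaCl2 to 10 mM final, 3 min after compounds in tetraethylammonium-based buffer, pH 7.2, reached Fluo-4-AM-loaded recombinant HEK293 cells. The integrated kinetic fluorescence signal per concentration gave concentration-response curves by non-linear sigmoidal regression.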

T1 sequence (O95180 whole entry): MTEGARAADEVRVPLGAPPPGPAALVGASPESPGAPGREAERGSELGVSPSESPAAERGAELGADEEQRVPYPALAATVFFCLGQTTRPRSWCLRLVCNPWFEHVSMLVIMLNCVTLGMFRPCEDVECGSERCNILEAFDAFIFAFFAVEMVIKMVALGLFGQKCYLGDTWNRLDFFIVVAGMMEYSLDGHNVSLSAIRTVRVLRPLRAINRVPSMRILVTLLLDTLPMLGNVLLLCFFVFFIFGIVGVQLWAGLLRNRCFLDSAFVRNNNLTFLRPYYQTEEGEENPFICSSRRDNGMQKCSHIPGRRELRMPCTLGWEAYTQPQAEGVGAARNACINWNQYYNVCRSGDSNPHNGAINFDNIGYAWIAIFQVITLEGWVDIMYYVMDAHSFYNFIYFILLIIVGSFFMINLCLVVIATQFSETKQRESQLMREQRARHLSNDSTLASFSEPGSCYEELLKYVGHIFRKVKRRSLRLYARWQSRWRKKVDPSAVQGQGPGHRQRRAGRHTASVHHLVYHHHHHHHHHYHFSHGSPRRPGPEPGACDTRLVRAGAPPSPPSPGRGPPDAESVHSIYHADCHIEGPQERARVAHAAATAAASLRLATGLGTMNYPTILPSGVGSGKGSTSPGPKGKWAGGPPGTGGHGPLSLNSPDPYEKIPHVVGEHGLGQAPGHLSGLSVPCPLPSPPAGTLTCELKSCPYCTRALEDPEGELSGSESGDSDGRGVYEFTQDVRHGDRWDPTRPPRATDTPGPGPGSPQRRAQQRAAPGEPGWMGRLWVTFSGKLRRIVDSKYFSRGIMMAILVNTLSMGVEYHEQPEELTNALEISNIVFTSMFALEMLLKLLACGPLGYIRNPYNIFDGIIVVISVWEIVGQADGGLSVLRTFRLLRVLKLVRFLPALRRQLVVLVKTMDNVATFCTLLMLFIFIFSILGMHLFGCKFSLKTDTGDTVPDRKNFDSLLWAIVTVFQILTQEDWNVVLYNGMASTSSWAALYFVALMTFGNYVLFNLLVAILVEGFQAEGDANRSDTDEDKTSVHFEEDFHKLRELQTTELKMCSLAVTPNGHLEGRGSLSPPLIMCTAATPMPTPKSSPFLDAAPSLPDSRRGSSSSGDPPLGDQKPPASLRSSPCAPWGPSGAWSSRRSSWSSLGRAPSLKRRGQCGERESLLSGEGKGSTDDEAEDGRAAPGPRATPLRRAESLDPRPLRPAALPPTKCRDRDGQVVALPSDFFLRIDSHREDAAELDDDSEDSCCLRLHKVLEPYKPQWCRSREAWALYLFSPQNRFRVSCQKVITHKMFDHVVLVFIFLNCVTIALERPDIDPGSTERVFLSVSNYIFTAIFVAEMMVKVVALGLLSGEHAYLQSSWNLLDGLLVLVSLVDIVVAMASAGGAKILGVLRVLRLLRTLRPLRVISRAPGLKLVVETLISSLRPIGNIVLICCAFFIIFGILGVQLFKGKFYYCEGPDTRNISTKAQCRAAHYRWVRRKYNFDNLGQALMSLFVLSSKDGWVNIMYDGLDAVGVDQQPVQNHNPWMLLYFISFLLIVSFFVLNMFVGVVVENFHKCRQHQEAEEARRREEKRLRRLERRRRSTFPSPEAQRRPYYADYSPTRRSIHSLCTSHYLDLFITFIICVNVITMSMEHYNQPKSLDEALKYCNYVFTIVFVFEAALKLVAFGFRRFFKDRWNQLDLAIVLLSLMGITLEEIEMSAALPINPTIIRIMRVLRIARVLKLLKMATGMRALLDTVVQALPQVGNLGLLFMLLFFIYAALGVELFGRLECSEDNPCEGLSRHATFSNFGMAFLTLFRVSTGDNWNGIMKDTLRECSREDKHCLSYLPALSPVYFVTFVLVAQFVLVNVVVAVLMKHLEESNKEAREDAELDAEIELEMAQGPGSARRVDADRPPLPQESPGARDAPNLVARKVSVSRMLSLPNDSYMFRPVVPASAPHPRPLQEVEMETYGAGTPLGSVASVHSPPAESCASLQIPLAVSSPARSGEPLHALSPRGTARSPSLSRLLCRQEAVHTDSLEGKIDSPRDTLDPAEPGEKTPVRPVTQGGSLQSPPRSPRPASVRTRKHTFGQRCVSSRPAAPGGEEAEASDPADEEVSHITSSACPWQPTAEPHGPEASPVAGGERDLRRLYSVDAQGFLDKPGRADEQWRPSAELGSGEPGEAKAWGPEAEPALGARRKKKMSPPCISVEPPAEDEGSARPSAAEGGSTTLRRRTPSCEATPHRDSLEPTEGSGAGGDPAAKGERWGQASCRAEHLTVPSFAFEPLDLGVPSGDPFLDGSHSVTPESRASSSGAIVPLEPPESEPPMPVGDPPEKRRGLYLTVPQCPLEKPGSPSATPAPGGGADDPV

| Compound | IC50 [nM] |
| --- | --- |
| CN(C)c1ccc(CC(=O)Nc2ccn(Cc3ccc(F)c(Cl)c3)n2)cn1 [Example 40, N-[1-(3-Chloro-4-fluoro-benzyl)-1H-pyrazol-3-yl]-2-(6-dimethylamino-pyridin-3-yl)-acetamide] | 16 |
| N#Cc1ccc(Cn2ccc(NC(=O)Cc3ccc(N4CCC(F)(F)C4)cc3)n2)nc1 [Example 91, N-[1-(5-Cyano-pyridin-2-ylmethyl)-1H-pyrazol-3-yl]-2-[4-(3,3-difluoro-pyrrolidin-1-yl)-phenyl]-acetamide] | 23 |
| O=C(Cc1ccc2cccnc2c1)Nc1ccn(Cc2ccc(F)c(F)c2)n1 [Example 206, N-[1-(3,4-Difluoro-benzyl)-1H-pyrazol-3-yl]-2-quinolin-7-yl-acetamide] | 50 |
| Cn1ccc2ccc(CC(=O)Nc3ccn(Cc4ccc(F)c(C#N)c4)n3)cc21 [Example 309, N-[1-(3-Cyano-4-fluoro-benzyl)-1H-pyrazol-3-yl]-2-(1-methyl-1H-indol-6-yl)-acetamide] | 27 |
| CC(C)(C)c1ccc(CC(=O)Nc2ccn(Cc3cc(F)c(C#N)c(F)c3)n2)cc1 [Example 352, 2-(4-tert-Butyl-phenyl)-N-[1-(4-cyano-3,5-difluoro-benzyl)-1H-pyrazol-3-yl]-acetamide] | 22 |
| CC(C)c1ccc(CC(=O)Nc2ccn(Cc3ccc(C#N)c(F)c3)n2)cc1 [Example 266, N-[1-(4-Cyano-3-fluoro-benzyl)-1H-pyrazol-3-yl]-2-(4-isopropyl-phenyl)-acetamide] | 6.6 |
| O=C(Cc1ccc(OCC2CC2)c(OC(F)(F)F)c1)Nc1ccn(Cc2ccc(F)c(F)c2)n1 [Example 398, 2-(4-Cyclopropylmethoxy-3-trifluoromethoxy-phenyl)-N-[1-(3,4-difluoro-benzyl)-1H-pyrazol-3-yl]-acetamide] | 39 |
| O=C(Cc1ccc(N2CCC2)cc1)Nc1ccn(Cc2ccc(F)c(F)c2)n1 [Example 60, 2-(4-Azetidin-1-yl-phenyl)-N-[1-(3,4-difluoro-benzyl)-1H-pyrazol-3-yl]-acetamide] | 4.7 |
| N#Cc1ccc(Cn2ccc(NC(=O)Cc3ccc([C@@H]4C[C@H]4C(F)(F)F)cc3)n2)nc1 (racemic) [Example 383, rac-N-[1-(5-Cyano-pyridin-2-ylmethyl)-1H-pyrazol-3-yl]-2-[4-((1R*,2R*)-2-trifluoromethyl-cyclopropyl)-phenyl]-acetamide] | 36 |
| N#Cc1ccc(Cn2ccc(NC(=O)Cc3ccc(N4CC[C@H](F)C4)cc3)n2)cc1 [Example 74, N-[1-(4-Cyano-benzyl)-1H-pyrazol-3-yl]-2-[4-((S)-3-fluoro-pyrrolidin-1-yl)-phenyl]-acetamide] | 14 |
| CN(C)c1ccc(CC(=O)Nc2ccn(Cc3ccc(C#N)cc3)n2)cn1 [Example 15, N-[1-(4-Cyano-benzyl)-1H-pyrazol-3-yl]-2-(6-dimethylamino-pyridin-3-yl)-acetamide] | 374 |
| N-[1-(5-Cyano-pyridin-2-ylmethyl)-1H-pyrazol-3-yl]-2-[4-(1-methyl-cyclopropyl)-phenyl]-acetamide [Example 375] | 9.9 |
| COCCOc1ccc(Cn2ccc(NC(=O)Cc3ccc(C(C)C)cc3)n2)nc1 [Example 104, 2-(4-Isopropyl-phenyl)-N-{1-[5-(2-methoxy-ethoxy)-pyridin-2-ylmethyl]-1H-pyrazol-3-yl}-acetamide] | 4520 |
| CC(C)(C#N)c1ccc(CC(=O)Nc2ccn(Cc3ccc(F)c(C#N)c3)n2)cc1 [Example 335, 2-[4-(Cyano-dimethyl-methyl)-phenyl]-N-[1-(3-cyano-4-fluoro-benzyl)-1H-pyrazol-3-yl]-acetamide] | 20 |
| CC(C)c1cn(C)c2ccc(CC(=O)Nc3ccn(Cc4ccc(C#N)cn4)n3)cc12 [Example 324, N-[1-(5-Cyano-pyridin-2-ylmethyl)-1H-pyrazol-3-yl]-2-(3-isopropyl-1-methyl-1H-indol-5-yl)-acetamide] | 31 |
| N#Cc1cnc(Cn2ccc(NC(=O)Cc3ccc(C4(C(F)(F)F)CC4)cc3)n2)c(F)c1 [Example 389, N-[1-(5-Cyano-3-fluoro-pyridin-2-ylmethyl)-1H-pyrazol-3-yl]-2-[4-(1-trifluoromethyl-cyclopropyl)-phenyl]-acetamide] | 506 |
| Cc1cn(C)c2ncc(CC(=O)Nc3ccn(Cc4ccc(F)c(C#N)c4)n3)cc12 [Example 321, N-[1-(3-Cyano-4-fluoro-benzyl)-1H-pyrazol-3-yl]-2-(1,3-dimethyl-1H-pyrrolo[2,3-b]pyridin-5-yl)-acetamide] | 91 |
| O=C(Cc1ccc(C2(F)COC2)nc1)Nc1ccn(Cc2ccc(F)c(F)c2)n1 [Example 315, N-[1-(3,4-Difluoro-benzyl)-1H-pyrazol-3-yl]-2-[6-(3-fluoro-oxetan-3-yl)-pyridin-3-yl]-acetamide] | 240 |
| N#Cc1nc(Cn2ccc(NC(=O)Cc3ccc(C4(C(F)(F)F)CC4)cc3)n2)ccc1F [Example 365, N-[1-(6-Cyano-5-fluoro-pyridin-2-ylmethyl)-1H-pyrazol-3-yl]-2-[4-(1-trifluoromethyl-cyclopropyl)-phenyl]-acetamide] | 18 |
| N#Cc1ccc(Cn2ccc(NC(=O)Cc3ccc(OC4COC4)cc3)n2)nc1 [Example 247, N-[1-(5-Cyano-pyridin-2-ylmethyl)-1H-pyrazol-3-yl]-2-[4-(oxetan-3-yloxy)-phenyl]-acetamide] | 2590 |
| N#Cc1ccc(Cn2ccc(NC(=O)Cc3ccc(C4(C(F)(F)F)CC4)cc3)n2)cc1 [Example 277, N-[1-(4-Cyano-benzyl)-1H-pyrazol-3-yl]-2-[4-(1-trifluoromethyl-cyclopropyl)-phenyl]-acetamide] | 15 |
| N#Cc1cc(Cn2ccc(NC(=O)Cc3ccc(OCC(F)(F)F)c(C4CC4)c3)n2)ncc1F [Example 409, N-[1-(4-Cyano-5-fluoro-pyridin-2-ylmethyl)-1H-pyrazol-3-yl]-2-[3-cyclopropyl-4-(2,2,2-trifluoro-ethoxy)-phenyl]-acetamide] | 43 |
| N#Cc1ccc(Cn2ccc(NC(=O)Cc3ccc(OC4COC4)cc3)n2)cc1F [Example 254, N-[1-(4-Cyano-3-fluoro-benzyl)-1H-pyrazol-3-yl]-2-[4-(oxetan-3-yloxy)-phenyl]-acetamide] | 100 |
| Cc1cn(C)c2cc(CC(=O)Nc3ccn(Cc4ccc(C#N)cn4)n3)ccc12 [Example 331, N-[1-(5-Cyano-pyridin-2-ylmethyl)-1H-pyrazol-3-yl]-2-(1,3-dimethyl-1H-indol-6-yl)-acetamide] | 9.6 |
| O=C(Cc1ccc(OCC2COC2)cc1)Nc1ccn(Cc2ccc(F)c(F)c2)n1 [Example 242, N-[1-(3,4-Difluoro-benzyl)-1H-pyrazol-3-yl]-2-[4-(oxetan-3-ylmethoxy)-phenyl]-acetamide] | 39 |
| Cc1cc(Cn2ccc(NC(=O)Cc3ccc(N(C)C)nc3)n2)ccc1F [Example 39, 2-(6-Dimethylamino-pyridin-3-yl)-N-[1-(4-fluoro-3-methyl-benzyl)-1H-pyrazol-3-yl]-acetamide] | 49 |
| Cc1ccc(Cn2ccc(NC(=O)Cc3ccc(C4(C)CC4)cc3)n2)nc1C#N [Example 377, N-[1-(6-Cyano-5-methyl-pyridin-2-ylmethyl)-1H-pyrazol-3-yl]-2-[4-(1-methyl-cyclopropyl)-phenyl]-acetamide] | 25 |

— US9932314B2, “Pyrazole compounds and their use as T-type calcium channel blockers” (IDORSIA PHARMACEUTICALS LTD, priority 2015, dated 2018)
